Where two headings read alike, the source gives them in different places.
Legend:
Assay in all cases: KinomeScan kinase panel, single concentration 10 µM
Assay type in all cases: binding
KinomeScan kinase panel [1] = molecular target: T1, KinomeScan kinase panel (Homo sapiens, UniProt P43403); conditions: kinase ZAP70; 10 µM; read-out: score (%)
T1 construct: purchased DiscoveRx (KinomeScan)
T1 sequence (P43403 1-619): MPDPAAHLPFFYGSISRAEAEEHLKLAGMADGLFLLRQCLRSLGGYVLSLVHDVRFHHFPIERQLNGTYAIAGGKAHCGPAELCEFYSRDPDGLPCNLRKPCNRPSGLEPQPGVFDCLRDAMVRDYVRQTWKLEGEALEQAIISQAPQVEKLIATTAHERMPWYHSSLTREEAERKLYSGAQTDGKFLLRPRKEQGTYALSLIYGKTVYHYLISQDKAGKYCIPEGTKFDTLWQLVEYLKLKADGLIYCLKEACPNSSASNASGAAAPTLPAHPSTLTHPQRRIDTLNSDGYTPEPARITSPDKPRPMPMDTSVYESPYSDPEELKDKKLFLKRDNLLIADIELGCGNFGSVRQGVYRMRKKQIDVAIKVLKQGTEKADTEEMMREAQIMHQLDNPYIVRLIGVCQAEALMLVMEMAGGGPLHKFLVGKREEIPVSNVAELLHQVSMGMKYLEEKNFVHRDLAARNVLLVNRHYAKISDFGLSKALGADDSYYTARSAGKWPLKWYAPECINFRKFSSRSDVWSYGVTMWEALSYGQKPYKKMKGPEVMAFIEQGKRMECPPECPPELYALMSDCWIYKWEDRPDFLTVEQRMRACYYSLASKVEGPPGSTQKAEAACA

KinomeScan kinase panel [2] = molecular target: T2, KinomeScan kinase panel (Homo sapiens, UniProt O60674); conditions: 10 µM
T2 construct: purchased DiscoveRx (KinomeScan)
T2 sequence (O60674 whole entry): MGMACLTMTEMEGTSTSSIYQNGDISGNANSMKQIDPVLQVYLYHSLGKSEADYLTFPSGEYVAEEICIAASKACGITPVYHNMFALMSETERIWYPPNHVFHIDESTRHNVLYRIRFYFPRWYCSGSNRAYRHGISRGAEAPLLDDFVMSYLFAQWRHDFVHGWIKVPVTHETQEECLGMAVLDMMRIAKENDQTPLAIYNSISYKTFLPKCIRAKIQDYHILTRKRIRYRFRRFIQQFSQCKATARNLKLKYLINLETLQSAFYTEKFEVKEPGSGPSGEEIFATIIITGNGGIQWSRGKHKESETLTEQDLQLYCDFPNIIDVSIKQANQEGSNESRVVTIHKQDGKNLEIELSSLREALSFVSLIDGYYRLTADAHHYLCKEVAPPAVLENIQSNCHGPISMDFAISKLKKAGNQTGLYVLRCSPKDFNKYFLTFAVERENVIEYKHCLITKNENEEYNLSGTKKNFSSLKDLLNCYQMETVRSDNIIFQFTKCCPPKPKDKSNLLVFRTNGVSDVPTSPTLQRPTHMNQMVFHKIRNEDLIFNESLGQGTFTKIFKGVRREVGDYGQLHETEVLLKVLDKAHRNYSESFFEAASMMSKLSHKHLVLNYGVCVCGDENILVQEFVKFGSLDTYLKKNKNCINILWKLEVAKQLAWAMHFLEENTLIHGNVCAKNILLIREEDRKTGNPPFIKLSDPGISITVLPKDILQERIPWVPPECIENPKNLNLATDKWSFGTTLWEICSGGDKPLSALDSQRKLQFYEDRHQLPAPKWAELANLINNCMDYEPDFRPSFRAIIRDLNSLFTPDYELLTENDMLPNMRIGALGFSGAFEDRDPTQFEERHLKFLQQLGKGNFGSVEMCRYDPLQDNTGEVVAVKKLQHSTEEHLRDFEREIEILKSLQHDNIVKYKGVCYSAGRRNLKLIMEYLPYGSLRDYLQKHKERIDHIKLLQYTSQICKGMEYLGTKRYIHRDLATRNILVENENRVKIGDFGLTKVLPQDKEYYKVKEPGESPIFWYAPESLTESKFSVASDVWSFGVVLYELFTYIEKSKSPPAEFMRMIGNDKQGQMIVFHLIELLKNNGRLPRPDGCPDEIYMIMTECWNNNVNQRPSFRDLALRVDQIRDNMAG

KinomeScan kinase panel [3] = molecular target: T3, KinomeScan kinase panel (Homo sapiens, UniProt P30291); conditions: kinase WEE1; 10 µM; read-out: score (%)
T3 construct: purchased DiscoveRx (KinomeScan)
T3 sequence (P30291 whole entry): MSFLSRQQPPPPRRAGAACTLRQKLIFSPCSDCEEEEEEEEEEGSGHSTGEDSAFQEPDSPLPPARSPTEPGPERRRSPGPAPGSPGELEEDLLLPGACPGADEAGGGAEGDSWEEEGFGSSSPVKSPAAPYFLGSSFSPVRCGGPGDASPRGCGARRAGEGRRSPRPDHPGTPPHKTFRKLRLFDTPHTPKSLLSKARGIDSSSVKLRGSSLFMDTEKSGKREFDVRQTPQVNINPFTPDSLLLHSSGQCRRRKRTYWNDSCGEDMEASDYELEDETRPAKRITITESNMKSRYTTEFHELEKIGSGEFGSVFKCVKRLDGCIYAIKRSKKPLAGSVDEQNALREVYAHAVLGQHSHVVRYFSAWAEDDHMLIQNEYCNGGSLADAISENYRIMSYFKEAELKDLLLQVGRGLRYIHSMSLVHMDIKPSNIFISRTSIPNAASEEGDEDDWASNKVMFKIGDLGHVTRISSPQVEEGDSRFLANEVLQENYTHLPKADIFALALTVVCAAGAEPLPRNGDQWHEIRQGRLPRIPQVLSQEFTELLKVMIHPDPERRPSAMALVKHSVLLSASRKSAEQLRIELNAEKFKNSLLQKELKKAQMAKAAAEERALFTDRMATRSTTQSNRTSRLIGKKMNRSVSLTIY

KinomeScan kinase panel [4] = molecular target: T4, KinomeScan kinase panel (Homo sapiens, UniProt O94806); conditions: read-out: score (%)
T4 construct: purchased DiscoveRx (KinomeScan)
T4 sequence (O94806 1-890): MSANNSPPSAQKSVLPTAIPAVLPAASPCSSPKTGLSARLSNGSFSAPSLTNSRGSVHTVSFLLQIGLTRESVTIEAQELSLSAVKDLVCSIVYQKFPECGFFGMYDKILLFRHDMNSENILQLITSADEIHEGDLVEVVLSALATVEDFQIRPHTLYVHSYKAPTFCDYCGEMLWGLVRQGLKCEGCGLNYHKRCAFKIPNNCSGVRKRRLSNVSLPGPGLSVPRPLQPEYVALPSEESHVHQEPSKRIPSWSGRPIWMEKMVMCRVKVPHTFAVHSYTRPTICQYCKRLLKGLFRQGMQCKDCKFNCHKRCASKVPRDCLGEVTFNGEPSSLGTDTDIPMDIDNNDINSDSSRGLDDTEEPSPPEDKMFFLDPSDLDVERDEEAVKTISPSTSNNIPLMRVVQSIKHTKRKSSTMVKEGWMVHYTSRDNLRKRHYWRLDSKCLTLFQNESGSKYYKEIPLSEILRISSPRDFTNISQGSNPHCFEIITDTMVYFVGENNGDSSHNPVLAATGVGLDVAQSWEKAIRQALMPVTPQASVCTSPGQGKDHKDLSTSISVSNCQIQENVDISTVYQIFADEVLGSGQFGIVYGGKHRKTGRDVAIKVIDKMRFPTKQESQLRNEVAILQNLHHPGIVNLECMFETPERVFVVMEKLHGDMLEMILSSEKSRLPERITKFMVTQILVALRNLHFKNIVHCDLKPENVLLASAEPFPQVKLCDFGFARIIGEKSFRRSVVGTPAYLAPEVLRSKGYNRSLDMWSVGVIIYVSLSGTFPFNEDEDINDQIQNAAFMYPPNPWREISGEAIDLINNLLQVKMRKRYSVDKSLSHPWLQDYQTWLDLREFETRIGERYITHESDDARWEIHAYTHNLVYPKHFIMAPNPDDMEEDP

KinomeScan kinase panel [5] = molecular target: T5, KinomeScan kinase panel (Homo sapiens, UniProt P10721, V559D); conditions: KIT(V559D), 10 µM; read-out: score (%)
T5 construct: purchased DiscoveRx (KinomeScan)

KinomeScan kinase panel [6] = molecular target: T6, KinomeScan kinase panel (Homo sapiens, UniProt Q16584); conditions: MLK3, 10 µM
T6 construct: purchased DiscoveRx (KinomeScan)
T6 sequence (Q16584 whole entry): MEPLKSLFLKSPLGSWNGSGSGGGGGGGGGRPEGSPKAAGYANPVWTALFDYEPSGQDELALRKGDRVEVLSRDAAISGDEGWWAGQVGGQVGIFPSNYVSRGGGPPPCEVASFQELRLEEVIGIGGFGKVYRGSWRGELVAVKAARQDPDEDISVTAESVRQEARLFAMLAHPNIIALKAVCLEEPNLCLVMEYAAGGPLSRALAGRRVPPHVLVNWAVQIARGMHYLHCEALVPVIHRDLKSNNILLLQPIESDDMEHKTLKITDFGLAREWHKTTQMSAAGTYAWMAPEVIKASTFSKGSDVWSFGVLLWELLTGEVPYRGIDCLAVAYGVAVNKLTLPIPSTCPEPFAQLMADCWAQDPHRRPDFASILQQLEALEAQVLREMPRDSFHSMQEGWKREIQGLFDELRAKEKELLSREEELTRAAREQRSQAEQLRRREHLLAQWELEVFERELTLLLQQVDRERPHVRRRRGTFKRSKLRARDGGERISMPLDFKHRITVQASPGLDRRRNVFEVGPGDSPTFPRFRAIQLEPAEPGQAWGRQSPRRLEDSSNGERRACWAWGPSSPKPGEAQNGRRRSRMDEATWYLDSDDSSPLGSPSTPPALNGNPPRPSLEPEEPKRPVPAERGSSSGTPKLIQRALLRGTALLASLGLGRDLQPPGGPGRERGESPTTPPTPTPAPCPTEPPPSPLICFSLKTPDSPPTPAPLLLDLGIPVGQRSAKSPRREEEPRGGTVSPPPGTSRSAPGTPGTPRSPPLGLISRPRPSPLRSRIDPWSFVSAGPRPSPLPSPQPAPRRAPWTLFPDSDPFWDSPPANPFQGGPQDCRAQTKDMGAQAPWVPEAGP

KinomeScan kinase panel [7] = molecular target: T7, KinomeScan kinase panel (Homo sapiens, UniProt P37023); conditions: ACVRL1, 10 µM; read-out: score (%)
T7 construct: purchased DiscoveRx (KinomeScan)
T7 sequence (P37023 22-503): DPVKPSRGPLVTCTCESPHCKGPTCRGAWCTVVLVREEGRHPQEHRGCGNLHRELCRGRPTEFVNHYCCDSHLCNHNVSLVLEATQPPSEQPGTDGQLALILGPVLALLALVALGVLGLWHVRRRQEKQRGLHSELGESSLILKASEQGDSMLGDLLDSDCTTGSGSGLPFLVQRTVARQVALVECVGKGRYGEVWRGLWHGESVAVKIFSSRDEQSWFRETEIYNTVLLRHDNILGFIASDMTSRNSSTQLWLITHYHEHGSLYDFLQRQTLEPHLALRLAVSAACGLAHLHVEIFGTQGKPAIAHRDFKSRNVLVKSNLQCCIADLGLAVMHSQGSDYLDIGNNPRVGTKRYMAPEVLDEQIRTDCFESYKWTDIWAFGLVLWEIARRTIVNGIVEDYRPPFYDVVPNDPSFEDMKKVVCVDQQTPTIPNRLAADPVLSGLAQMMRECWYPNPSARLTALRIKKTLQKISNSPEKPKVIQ

KinomeScan kinase panel [8] = molecular target: T8, KinomeScan kinase panel (Homo sapiens, UniProt Q13705); conditions: ACVR2B, 10 µM
T8 construct: purchased DiscoveRx (KinomeScan)
T8 sequence (Q13705 19-512): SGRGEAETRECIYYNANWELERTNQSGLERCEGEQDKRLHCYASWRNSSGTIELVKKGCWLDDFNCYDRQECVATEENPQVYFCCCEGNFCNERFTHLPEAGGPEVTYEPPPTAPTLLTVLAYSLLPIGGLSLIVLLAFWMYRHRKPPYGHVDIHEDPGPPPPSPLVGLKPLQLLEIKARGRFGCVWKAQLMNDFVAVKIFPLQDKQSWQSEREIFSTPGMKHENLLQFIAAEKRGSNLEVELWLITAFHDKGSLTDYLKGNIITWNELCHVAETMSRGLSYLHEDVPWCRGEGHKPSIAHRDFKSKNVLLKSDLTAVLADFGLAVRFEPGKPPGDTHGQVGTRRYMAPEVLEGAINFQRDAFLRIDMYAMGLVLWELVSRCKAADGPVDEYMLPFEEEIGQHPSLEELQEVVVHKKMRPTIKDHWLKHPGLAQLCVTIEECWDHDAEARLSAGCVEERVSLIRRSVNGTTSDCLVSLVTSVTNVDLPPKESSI

KinomeScan kinase panel [9] = molecular target: T9, KinomeScan kinase panel (Homo sapiens, UniProt P10721, D816V); conditions: KIT(D816V), 10 µM; read-out: score (%)
T9 construct: purchased DiscoveRx (KinomeScan)

KinomeScan kinase panel [10] = molecular target: T10, KinomeScan kinase panel (Homo sapiens, UniProt Q9BYT3); conditions: read-out: score (%)
T10 construct: purchased DiscoveRx (KinomeScan)
T10 sequence (Q9BYT3 whole entry): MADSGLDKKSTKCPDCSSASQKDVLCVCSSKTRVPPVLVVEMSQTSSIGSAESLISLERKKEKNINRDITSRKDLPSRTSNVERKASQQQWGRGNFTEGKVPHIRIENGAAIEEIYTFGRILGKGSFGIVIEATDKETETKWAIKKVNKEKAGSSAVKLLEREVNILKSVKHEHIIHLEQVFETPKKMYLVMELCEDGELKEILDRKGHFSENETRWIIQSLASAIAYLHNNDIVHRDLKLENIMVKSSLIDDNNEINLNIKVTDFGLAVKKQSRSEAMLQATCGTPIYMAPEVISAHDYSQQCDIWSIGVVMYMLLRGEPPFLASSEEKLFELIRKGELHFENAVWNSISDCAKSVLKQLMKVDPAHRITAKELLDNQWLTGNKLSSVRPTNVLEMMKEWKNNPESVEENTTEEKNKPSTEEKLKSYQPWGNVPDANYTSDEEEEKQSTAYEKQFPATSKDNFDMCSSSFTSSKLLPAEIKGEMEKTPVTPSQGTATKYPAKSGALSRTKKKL

KinomeScan kinase panel [11] = molecular target: T11, KinomeScan kinase panel (Homo sapiens, UniProt Q00537); conditions: PCTK2, 10 µM; read-out: score (%)
T11 construct: purchased DiscoveRx (KinomeScan)
T11 sequence (Q00537 whole entry): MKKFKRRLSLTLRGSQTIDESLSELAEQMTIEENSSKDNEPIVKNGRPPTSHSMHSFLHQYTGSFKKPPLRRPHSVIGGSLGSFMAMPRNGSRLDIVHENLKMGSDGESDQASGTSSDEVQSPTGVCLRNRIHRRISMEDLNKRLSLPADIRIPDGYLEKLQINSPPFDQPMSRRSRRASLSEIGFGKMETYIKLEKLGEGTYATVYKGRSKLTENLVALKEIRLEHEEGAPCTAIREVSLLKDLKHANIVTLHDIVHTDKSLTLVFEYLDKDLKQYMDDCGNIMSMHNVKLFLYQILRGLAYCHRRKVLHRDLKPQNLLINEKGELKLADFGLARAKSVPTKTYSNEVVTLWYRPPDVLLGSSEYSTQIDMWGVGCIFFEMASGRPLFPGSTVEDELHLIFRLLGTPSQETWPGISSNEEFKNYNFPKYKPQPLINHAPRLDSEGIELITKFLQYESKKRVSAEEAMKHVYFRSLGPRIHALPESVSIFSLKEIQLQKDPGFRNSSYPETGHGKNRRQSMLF

KinomeScan kinase panel [12] = molecular target: T12, KinomeScan kinase panel (Homo sapiens, UniProt Q08881); conditions: ITK, 10 µM
T12 construct: purchased DiscoveRx (KinomeScan)
T12 sequence (Q08881 1-620): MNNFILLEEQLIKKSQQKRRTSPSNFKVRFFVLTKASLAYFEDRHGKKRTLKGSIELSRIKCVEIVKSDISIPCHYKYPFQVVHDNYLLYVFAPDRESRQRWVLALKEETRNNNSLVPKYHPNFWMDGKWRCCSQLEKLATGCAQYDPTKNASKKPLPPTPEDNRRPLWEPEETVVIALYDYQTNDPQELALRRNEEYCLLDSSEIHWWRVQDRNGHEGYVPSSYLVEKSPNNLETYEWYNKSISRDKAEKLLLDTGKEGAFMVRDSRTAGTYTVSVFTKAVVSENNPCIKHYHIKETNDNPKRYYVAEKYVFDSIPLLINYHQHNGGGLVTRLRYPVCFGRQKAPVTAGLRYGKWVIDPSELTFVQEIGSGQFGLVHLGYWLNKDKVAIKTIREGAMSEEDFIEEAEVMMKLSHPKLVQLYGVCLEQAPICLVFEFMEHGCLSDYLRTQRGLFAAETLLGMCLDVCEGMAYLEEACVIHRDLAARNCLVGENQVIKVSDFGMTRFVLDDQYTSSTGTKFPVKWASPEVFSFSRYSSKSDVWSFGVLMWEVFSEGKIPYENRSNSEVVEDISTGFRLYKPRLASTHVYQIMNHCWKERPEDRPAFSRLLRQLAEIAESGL

score (%) (KinomeScan kinase panel [2]; JAK2(Kin.Dom.2)) | remaining binding at 10 µM (KinomeScan kinase panel [10]; STK33, 10 µM) [%] | SMILES | remaining binding at 10 µM (KinomeScan kinase panel [1]) [%] | score (%) (KinomeScan kinase panel [2]; JAK2(JH1domain-catalytic)) | remaining binding at 10 µM (KinomeScan kinase panel [3]) [%] | remaining binding at 10 µM (KinomeScan kinase panel [4]; PRKD3, 10 µM) [%] | remaining binding at 10 µM (KinomeScan kinase panel [5]) [%] | score (%) (KinomeScan kinase panel [6]) | remaining binding at 10 µM (KinomeScan kinase panel [7]) [%] | score (%) (KinomeScan kinase panel [8]) | remaining binding at 10 µM (KinomeScan kinase panel [9]) [%] | remaining binding at 10 µM (KinomeScan kinase panel [10]; kinase STK33, 10 µM) [%] | remaining binding at 10 µM (KinomeScan kinase panel [11]) [%] | score (%) (KinomeScan kinase panel [12]) | remaining binding at 10 µM (KinomeScan kinase panel [4]; kinase PRKD3, 10 µM) [%]
 |  | CCN1CCN(Cc2ccc(NC(=O)c3ccc(C)c(NC(=O)c4cncc(-c5cccs5)c4)c3)cc2C(F)(F)F)CC1 [ALW-II-41-27] | > 30 | 11 | > 30 | > 30 | 0.1 | nb (Hits values higher than 30% were considered negative (no binding: nb)) | > 30 | nb (Hits values higher than 30% were considered negative (no binding: nb)) | 0.75 | > 30 | > 30 | 8.6% | 
12 | 23 | CCN1CCN(Cc2ccc(NC(=O)c3ccc(C)c(/C=C/c4cnc5[nH]ccc5c4Cl)c3)cc2C(F)(F)F)CC1 [HG-6-63-01, (E)-3-(2-(4-chloro-1H-pyrrolo[2,3-b]pyridin-5-yl)vinyl)-N-(4-((4-ethylpiperazin-1-yl)methyl)-3-(trifluoromethyl)phenyl)-4-methylbenzamide] | > 30 |  | > 30 | > 30 | 0 | 0.8% | > 30 | nb (Hits values higher than 30% were considered negative (no binding: nb)) | 0.3 |  | > 30 | 21% | 
 |  | CCN1CCN(Cc2ccc(NC(=O)c3ccc(C)c(C#Cc4cccnc4)c3)cc2C(F)(F)F)CC1 [XMD15-44] | 62 | 3 | 100 |  | 0 | 17% | > 30 | nb (Hits values higher than 30% were considered negative (no binding: nb)) | 2 | 14 | 8.2 | nb (Hits values higher than 30% were considered negative (no binding: nb)) | 22
